ChEMBL document CHEMBL1155489, “Novel 3-O-pegylated carboxylate and 3-O-pegylated carbamate prodrugs of naltrexone for microneedle-enhanced transdermal delivery” (Bioorg Med Chem Lett, 2010)
≈ marks a conversion by molar mass, not a printed value.

What was measured:
[1] = Solubility in 0.3 M acetate buffer at pH 5 relative to naltrexone; format: physicochemical
[2] = Solubility in 0.3 M acetate buffer at pH 5; format: physicochemical

SMILES	Ratio [1]	solubility thermodynamic [2] [mM]
COCCOCCOCCNC(=O)Oc1ccc2c3c1O[C@H]1C(=O)CC[C@@]4(O)[C@@H](C2)N(CC2CC2)CC[C@]314	2.35	796 (≈ 422 mg/mL)
O=C(NCCOCCOCCO)Oc1ccc2c3c1O[C@H]1C(=O)CC[C@@]4(O)[C@@H](C2)N(CC2CC2)CC[C@]314	3.06	1040 (≈ 535 mg/mL)
O=C(CCOCCOCCO)Oc1ccc2c3c1O[C@H]1C(=O)CC[C@@]4(O)[C@@H](C2)N(CC2CC2)CC[C@]314	1.86	629 (≈ 315 mg/mL)
COCCOCCOCCC(=O)Oc1ccc2c3c1O[C@H]1C(=O)CC[C@@]4(O)[C@@H](C2)N(CC2CC2)CC[C@]314	2.81	952 (≈ 491 mg/mL)
O=C1CC[C@@]2(O)[C@H]3Cc4ccc(O)c5c4[C@@]2(CCN3CC2CC2)[C@H]1O5 [NALTREXONE]		338 (≈ 115 mg/mL)
